This passage reports Ki results from ChEMBL document CHEMBL1135257, “Bivalent inhibition of beta-tryptase: distance scan of neighboring subunits by dibasic inhibitors” (Bioorg Med Chem Lett, 2002).

In the assay the target is Tryptase beta-1 (Homo sapiens, UniProt Q15661). Nature of the assay: Inhibitory activity against human Tryptase beta was evaluated.
Sequence of Tryptase beta-1 (Q15661 whole entry): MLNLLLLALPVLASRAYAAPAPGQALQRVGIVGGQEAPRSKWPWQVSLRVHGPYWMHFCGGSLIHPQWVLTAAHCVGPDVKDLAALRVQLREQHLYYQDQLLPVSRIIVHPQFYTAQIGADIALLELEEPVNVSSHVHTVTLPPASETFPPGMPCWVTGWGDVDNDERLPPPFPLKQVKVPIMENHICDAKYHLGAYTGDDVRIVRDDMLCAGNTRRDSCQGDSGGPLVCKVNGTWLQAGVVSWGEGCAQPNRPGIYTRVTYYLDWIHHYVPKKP
For orientation: Ki means a measure of affinity in units of concentration, obtained from inhibition or displacement. As for `COC(=O)C(Cc1cccc(CN)c1)NC(=O)CCNC(=O)C[C@@H]1NC(=O)[C@@H](CC(=O)NCCC(=O)NC(Cc2cccc(CN)c2)C(=O)OC)NC1=O` (some centres not stated), the Ki came to 10 nM. The result for `COC(=O)C(Cc1cccc(CN)c1)NC(=O)CC[C@@H]1NC(=O)[C@@H](CC(=O)NCC(=O)NC(Cc2cccc(CN)c2)C(=O)OC)NC1=O` (some centres not stated) reads 180 nM; that for `COC(=O)C(Cc1cccc(CN)c1)NC(=O)CCCNC(=O)C[C@@H]1NC(=O)[C@@H](CC(=O)NCCCC(=O)NC(Cc2cccc(CN)c2)C(=O)OC)NC1=O` (some centres not stated), 350 nM; that for `COC(=O)C(Cc1cccc(CN)c1)NC(=O)CCC1NC(=O)[C@@H](CCC(=O)NC(Cc2cccc(CN)c2)C(=O)OC)NC1=O` (some centres not stated), 2400 nM. In turn, `COC(=O)[C@@H](Cc1ccc(CN)cc1)NC(C)=O` had a Ki of 213000 nM. On to `COC(=O)C(Cc1cccc(CN)c1)NC(=O)CNC(=O)C[C@@H]1NC(=O)[C@@H](CC(=O)NCC(=O)NC(Cc2cccc(CN)c2)C(=O)OC)NC1=O` (some centres not stated), for which the Ki stood at 18 nM. The result for `COC(=O)[C@@H](Cc1cccc(CN)c1)NC(C)=O` reads 13700 nM.
